According to paper PMC5218480 (PLoS ONE, 2017):

Tested on: MV-4-11 cells
Experiment: Gene expression microarray analysis (Affymetrix PrimeView) and GSEA
Assay type: cell-based, human
Design: RFU PODN (11730768_x_at) / Fold change /veh PODN (11730768_x_at) / RFU LINC00158 (11744669_a_at) / Fold change /veh LINC00158 (11744669_a_at) / RFU DUSP10 (11751237_a_at) / Fold change /veh DUSP10 (11751237_a_at) / RFU ID3 (11757404_x_at) / Fold change /veh ID3 (11757404_x_at) / RFU PLEKHG5 (11737974_s_at) / Fold change /veh PLEKHG5 (11737974_s_at) / RFU LRRC4B (11730491_at) / Fold change /veh LRRC4B (11730491_at) / RFU GIMAP4 (11747438_a_at) / Fold change /veh GIMAP4 (11747438_a_at) / RFU KRT8 (11758183_x_at) / Fold change /veh KRT8 (11758183_x_at) / RFU CNN1 (11734310_a_at) / Fold change /veh CNN1 (11734310_a_at) / RFU VPS37D (11726825_at) / Fold change /veh VPS37D (11726825_at) / RFU C10orf10 (11716522_x_at) / Fold change /veh C10orf10 (11716522_x_at) / RFU KIR2DL2 /// KIR2DL4 /// KIR2DL5A /// KIR2DL5B /// KIR2DS1 /// KIR2DS2 /// KIR2DS3 /// KIR2DS4 /// KIR3DL3 /// KIR3DL3 /// KIR3DS1 (11738374_at) / Fold change /veh KIR2DL2 /// KIR2DL4 /// KIR2DL5A /// KIR2DL5B /// KIR2DS1 /// KIR2DS2 /// KIR2DS3 /// KIR2DS4 /// KIR3DL3 /// KIR3DL3 /// KIR3DS1 (11738374_at) / RFU C1QL1 (11718748_at) / Fold change /veh C1QL1 (11718748_at) / RFU TMPRSS4 (11747572_a_at) / Fold change /veh TMPRSS4 (11747572_a_at) / RFU HAMP (11756126_x_at) / Fold change /veh HAMP (11756126_x_at) / RFU RNFT2 (11725882_a_at) / Fold change /veh RNFT2 (11725882_a_at) / RFU NR4A2 (11747474_a_at) / Fold change /veh NR4A2 (11747474_a_at) / RFU ABCC12 (11746883_a_at) / Fold change /veh ABCC12 (11746883_a_at) / RFU TMEM136 (11760407_x_at) / Fold change /veh TMEM136 (11760407_x_at) / RFU CLDN22 /// WWC2 (11732394_at) / Fold change /veh CLDN22 /// WWC2 (11732394_at) / RFU HLA-DPB1 (11760878_x_at) / Fold change /veh HLA-DPB1 (11760878_x_at) / RFU SPINT1 (11716480_a_at) / Fold change /veh SPINT1 (11716480_a_at) / RFU GAP43 (11754022_s_at) / Fold change /veh GAP43 (11754022_s_at) / RFU A4GNT (11735810_at) / Fold change /veh A4GNT (11735810_at) / RFU PRB3 (11715151_x_at) / Fold change /veh PRB3 (11715151_x_at) / RFU TUBB4B (11761932_at) / Fold change /veh TUBB4B (11761932_at) / RFU CAPN14 (11732068_a_at) / Fold change /veh CAPN14 (11732068_a_at) / RFU TMCC2 (11721928_a_at) / Fold change /veh TMCC2 (11721928_a_at) / RFU IRGQ (11745062_a_at) / Fold change /veh IRGQ (11745062_a_at) / RFU FAM174B (11720279_a_at) / Fold change /veh FAM174B (11720279_a_at) / RFU TMPRSS4 (11748680_a_at) / Fold change /veh TMPRSS4 (11748680_a_at) / RFU FAM212B (11763350_a_at) / Fold change /veh FAM212B (11763350_a_at) / RFU PLEKHG5 (11743358_a_at) / Fold change /veh PLEKHG5 (11743358_a_at) / RFU ZSCAN30 (11745921_a_at) / Fold change /veh ZSCAN30 (11745921_a_at) / RFU CMKLR1 (11741424_a_at) / Fold change /veh CMKLR1 (11741424_a_at) / RFU LOC101060620 /// MAPK8IP1 (11723275_at) / Fold change /veh LOC101060620 /// MAPK8IP1 (11723275_at) / RFU SPTSSB (11747773_x_at) / Fold change /veh SPTSSB (11747773_x_at) / RFU PRSS12 (11739890_at) / Fold change /veh PRSS12 (11739890_at) / RFU BIN1 (11741810_x_at) / Fold change /veh BIN1 (11741810_x_at) / RFU WNT11 (11732464_a_at) / Fold change /veh WNT11 (11732464_a_at) / RFU C10orf10 (11716521_a_at) / Fold change /veh C10orf10 (11716521_a_at) / RFU C5orf56 (11738089_at) / Fold change /veh C5orf56 (11738089_at) / RFU CYB561 (11721691_x_at) / Fold change /veh CYB561 (11721691_x_at) / RFU ANKRD19P (11752326_a_at) / Fold change /veh ANKRD19P (11752326_a_at) / RFU OR2T12 /// OR2T33 /// OR2T8 (11738714_s_at) / Fold change /veh OR2T12 /// OR2T33 /// OR2T8 (11738714_s_at) / RFU VCAN (11748164_a_at) / Fold change /veh VCAN (11748164_a_at) / RFU JSRP1 (11732532_at) / Fold change /veh JSRP1 (11732532_at) / RFU KRTAP10-11 (11738290_x_at) / Fold change /veh KRTAP10-11 (11738290_x_at) / RFU MYO3A (11730013_a_at) / Fold change /veh MYO3A (11730013_a_at) / RFU EBF3 (11725865_a_at) / Fold change /veh EBF3 (11725865_a_at) / RFU CAMK2N1 (11719241_x_at) / Fold change /veh CAMK2N1 (11719241_x_at) / RFU C5orf56 (11738088_a_at) / Fold change /veh C5orf56 (11738088_a_at) / RFU OLFML3 (11715873_a_at) / Fold change /veh OLFML3 (11715873_a_at) / RFU LOC100653217 /// NTM (11731650_a_at) / Fold change /veh LOC100653217 /// NTM (11731650_a_at) / RFU MAPK11 (11762145_a_at) / Fold change /veh MAPK11 (11762145_a_at) / RFU FIZ1 (11724087_x_at) / Fold change /veh FIZ1 (11724087_x_at) / RFU OASL (11726364_x_at) / Fold change /veh OASL (11726364_x_at) / RFU SOX15 (11748057_x_at) / Fold change /veh SOX15 (11748057_x_at) / RFU CD79A (11719716_a_at) / Fold change /veh CD79A (11719716_a_at) / RFU HIST1H1D (11736915_at) / Fold change /veh HIST1H1D (11736915_at) / RFU CASKIN2 (11723855_a_at) / Fold change /veh CASKIN2 (11723855_a_at) / RFU LOC730098 (11760151_x_at) / Fold change /veh LOC730098 (11760151_x_at) / RFU OR4N2 (11742367_at) / Fold change /veh OR4N2 (11742367_at) / RFU PRRT2 (11749266_a_at) / Fold change /veh PRRT2 (11749266_a_at) / RFU SNX32 (11753110_a_at) / Fold change /veh SNX32 (11753110_a_at) / RFU CDHR5 (11726645_a_at) / Fold change /veh CDHR5 (11726645_a_at) / RFU RCAN1 (11760418_a_at) / Fold change /veh RCAN1 (11760418_a_at) / RFU FAM167A (11723789_a_at) / Fold change /veh FAM167A (11723789_a_at) / RFU FAM26E (11764081_at) / Fold change /veh FAM26E (11764081_at) / RFU ISYNA1 (11749810_s_at) / Fold change /veh ISYNA1 (11749810_s_at) / RFU ACY1 (11761880_at) / Fold change /veh ACY1 (11761880_at) / RFU 11764098_at / Fold change /veh 11764098_at / RFU SAMD14 (11745864_x_at) / Fold change /veh SAMD14 (11745864_x_at) / RFU NPB (11741838_a_at) / Fold change /veh NPB (11741838_a_at) / RFU TMPRSS6 (11731388_a_at) / Fold change /veh TMPRSS6 (11731388_a_at) / RFU KRTAP10-2 (11738614_at) / Fold change /veh KRTAP10-2 (11738614_at) / RFU ARHGAP8 /// PRR5-ARHGAP8 (11727945_x_at) / Fold change /veh ARHGAP8 /// PRR5-ARHGAP8 (11727945_x_at) / RFU KRTAP5-7 /// NADSYN1 (11734609_at) / Fold change /veh KRTAP5-7 /// NADSYN1 (11734609_at) / RFU RASL12 (11751679_a_at) / Fold change /veh RASL12 (11751679_a_at) / RFU CDKN2B (11736163_a_at) / Fold change /veh CDKN2B (11736163_a_at) / RFU PRF1 (11729649_at) / Fold change /veh PRF1 (11729649_at) / RFU, ZNF638 /// ZNF638-IT1 / Fold change vs veh, ZNF638 /// ZNF638-IT1 / RFU, PANK3 / Fold change vs veh, PANK3 / RFU, SH3YL1 / Fold change vs veh, SH3YL1 / RFU, ZEB2 / Fold change vs veh, ZEB2 / RFU, NRIP1 / Fold change vs veh, NRIP1 / RFU, PTTG1IP / Fold change vs veh, PTTG1IP / RFU, CAPN2 / Fold change vs veh, CAPN2 / RFU, MED14 / Fold change vs veh, MED14 / RFU, SNORA58 / Fold change vs veh, SNORA58 / RFU, C1orf63 / Fold change vs veh, C1orf63 / RFU, LRRFIP1 / Fold change vs veh, LRRFIP1 / RFU, NDUFAF7 / Fold change vs veh, NDUFAF7 / RFU, SLC12A2 / Fold change vs veh, SLC12A2 / RFU, IBTK / Fold change vs veh, IBTK / RFU, ESF1 / Fold change vs veh, ESF1 / Fold change vs veh, TMEM50B / RFU, TAOK1 / Fold change vs veh, TAOK1 / RFU, ACBD3 / Fold change vs veh, ACBD3 / RFU, TMA16 / Fold change vs veh, TMA16 / RFU, RWDD3 / Fold change vs veh, RWDD3 / RFU, BCAT1 / Fold change vs veh, BCAT1 / RFU, EDEM3 / Fold change vs veh, EDEM3 / RFU, TMEM33 / Fold change vs veh, TMEM33 / RFU, WDR75 / Fold change vs veh, WDR75 / RFU, AHCTF1 / Fold change vs veh, AHCTF1 / RFU, TFRC / Fold change vs veh, TFRC / RFU, ZDHHC17 / Fold change vs veh, ZDHHC17 / RFU, NOM1 / Fold change vs veh, NOM1 / RFU, ARL8B / Fold change vs veh, ARL8B / RFU, ZBTB11 / Fold change vs veh, ZBTB11 / RFU, TAMM41 / Fold change vs veh, TAMM41 / RFU, KIAA1704 /// LOC100996395 / Fold change vs veh, KIAA1704 /// LOC100996395 / RFU, ING1 / Fold change vs veh, ING1 / RFU, TRMT61B / Fold change vs veh, TRMT61B / RFU, FUBP3 / Fold change vs veh, FUBP3 / RFU, TP53 / Fold change vs veh, TP53 / RFU, TNKS2 / Fold change vs veh, TNKS2 / RFU, ZFP14 / Fold change vs veh, ZFP14 / RFU, ACTR2 / Fold change vs veh, ACTR2 / RFU, PPP3R1 / Fold change vs veh, PPP3R1 / RFU, PIK3R1 / Fold change vs veh, PIK3R1 / RFU, HNRNPA1 / Fold change vs veh, HNRNPA1 / RFU, RNF170 / Fold change vs veh, RNF170 / RFU, ZNF28 / Fold change vs veh, ZNF28 / RFU, RNGTT / Fold change vs veh, RNGTT / RFU, OGT / Fold change vs veh, OGT / RFU, BRD1 / Fold change vs veh, BRD1 / RFU, MARS / Fold change vs veh, MARS / RFU, ZNF655 / Fold change vs veh, ZNF655 / RFU, FAHD1 / Fold change vs veh, FAHD1 / RFU, BDP1 / Fold change vs veh, BDP1 / RFU, LRRCC1 / Fold change vs veh, LRRCC1 / RFU, ARID1A / Fold change vs veh, ARID1A / RFU, ZNF146 / Fold change vs veh, ZNF146 / RFU, ZNF330 / Fold change vs veh, ZNF330 / RFU, GPN3 / Fold change vs veh, GPN3 / RFU, C9orf123 / Fold change vs veh, C9orf123 / RFU, N4BP2L2 / Fold change vs veh, N4BP2L2 / RFU, ARFIP1 / Fold change vs veh, ARFIP1 / RFU, FAM179B / Fold change vs veh, FAM179B / RFU, BCL10 / Fold change vs veh, BCL10 / RFU, UHRF1BP1L / Fold change vs veh, UHRF1BP1L / RFU, BET1 / Fold change vs veh, BET1 / RFU, CNOT2 / Fold change vs veh, CNOT2 / RFU, ZNF268 / Fold change vs veh, ZNF268 / Fold change vs veh, ZNF507 / RFU, DGCR2 / Fold change vs veh, DGCR2 / RFU, WDSUB1 / Fold change vs veh, WDSUB1 / Fold change vs veh, HSP90B1 /// MIR3652 / RFU, ADSS / Fold change vs veh, ADSS / RFU, GK / Fold change vs veh, GK / RFU, ZNF148 / Fold change vs veh, ZNF148 / RFU, TAF9 / Fold change vs veh, TAF9 / RFU, SLC1A5 / Fold change vs veh, SLC1A5 / RFU, SLMO2 / Fold change vs veh, SLMO2 / RFU, ABCC4 / Fold change vs veh, ABCC4 / RFU, LOC101060439 /// RAP1B / Fold change vs veh, LOC101060439 /// RAP1B / RFU, RFX7 / Fold change vs veh, RFX7 / RFU, GTPBP10 / Fold change vs veh, GTPBP10 / RFU, CNEP1R1 / Fold change vs veh, CNEP1R1 / RFU, BIVM-ERCC5 /// ERCC5 / Fold change vs veh, BIVM-ERCC5 /// ERCC5 / RFU, ILF3 / Fold change vs veh, ILF3 / RFU 11762660_at / Fold change /veh 11762660_at / RFU VCAN (11757783_s_at) / Fold change /veh VCAN (11757783_s_at) / RFU DDX43 (11728927_at) / Fold change /veh DDX43 (11728927_at) / RFU KRT8 (11758188_x_at) / Fold change /veh KRT8 (11758188_x_at) / RFU NKD1 (11759106_at) / Fold change /veh NKD1 (11759106_at) / RFU SRD5A1 (11742802_a_at) / Fold change /veh SRD5A1 (11742802_a_at) / RFU TPSAB1 /// TPSB2 (11721975_s_at) / Fold change /veh TPSAB1 /// TPSB2 (11721975_s_at) / RFU GSTM3 (11746129_a_at) / Fold change /veh GSTM3 (11746129_a_at) / RFU IL23R (11737362_x_at) / Fold change /veh IL23R (11737362_x_at) / RFU TMEM51 (11727254_a_at) / Fold change /veh TMEM51 (11727254_a_at) / RFU PIWIL2 (11732686_x_at) / Fold change /veh PIWIL2 (11732686_x_at) / RFU ORM1 (11744905_x_at) / Fold change /veh ORM1 (11744905_x_at) / RFU CCDC152 (11743942_at) / Fold change /veh CCDC152 (11743942_at) / RFU ECM1 (11717891_a_at) / Fold change /veh ECM1 (11717891_a_at) / RFU IL23R (11748794_a_at) / Fold change /veh IL23R (11748794_a_at) / RFU TNFAIP8L3 (11732012_x_at) / Fold change /veh TNFAIP8L3 (11732012_x_at) / RFU MBOAT4 (11741988_at) / Fold change /veh MBOAT4 (11741988_at) / RFU 11764193_at / Fold change /veh 11764193_at / RFU TMEM53 (11763286_at) / Fold change /veh TMEM53 (11763286_at) / RFU MAGEB2 (11727129_at) / Fold change /veh MAGEB2 (11727129_at) / RFU TMEM200A (11744735_a_at) / Fold change /veh TMEM200A (11744735_a_at) / RFU CCDC152 (11751479_a_at) / Fold change /veh CCDC152 (11751479_a_at) / RFU FAM211A (11726209_a_at) / Fold change /veh FAM211A (11726209_a_at) / RFU RGS16 (11746705_a_at) / Fold change /veh RGS16 (11746705_a_at) / RFU VCAN (11755009_s_at) / Fold change /veh VCAN (11755009_s_at) / RFU RHOB (11743442_s_at) / Fold change /veh RHOB (11743442_s_at) / RFU RGS16 (11720943_a_at) / Fold change /veh RGS16 (11720943_a_at) / RFU RGS16 (11720944_at) / Fold change /veh RGS16 (11720944_at) / RFU, VPS4B / Fold change vs veh, VPS4B / RFU, CREB1 / Fold change vs veh, CREB1 / RFU, DNAJC13 / Fold change vs veh, DNAJC13 / RFU, GNAQ / Fold change vs veh, GNAQ / RFU, CDK5R1 / Fold change vs veh, CDK5R1 / RFU, ZRANB3 / Fold change vs veh, ZRANB3 / RFU, CUL4A / Fold change vs veh, CUL4A / RFU, CCNY / Fold change vs veh, CCNY / RFU, UFL1 / Fold change vs veh, UFL1 / RFU, COG3 / Fold change vs veh, COG3 / RFU, DIAPH2 / Fold change vs veh, DIAPH2 / RFU, SKA2 / Fold change vs veh, SKA2 / RFU, AFF3 / Fold change vs veh, AFF3 / RFU, LMF1 / Fold change vs veh, LMF1 / RFU, IPO11 / Fold change vs veh, IPO11 / RFU, DFFB / Fold change vs veh, DFFB / RFU, FOXP1 / Fold change vs veh, FOXP1 / RFU, CARD8 / Fold change vs veh, CARD8 / RFU, STRN3 / Fold change vs veh, STRN3 / RFU, ADK / Fold change vs veh, ADK / RFU, RASSF2 / Fold change vs veh, RASSF2 / RFU, WIPF1 / Fold change vs veh, WIPF1 / RFU, LARP1B / Fold change vs veh, LARP1B / RFU, RASA1 / Fold change vs veh, RASA1 / RFU, RB1 / Fold change vs veh, RB1 / RFU, PPFIA1 / Fold change vs veh, PPFIA1 / RFU, MAT2A / Fold change vs veh, MAT2A / RFU, CCT5 / Fold change vs veh, CCT5 / RFU, WDR92 / Fold change vs veh, WDR92 / RFU, CUX1 / Fold change vs veh, CUX1 / RFU, TTC7A / Fold change vs veh, TTC7A / RFU, TMEM135 / Fold change vs veh, TMEM135 / RFU, DEPTOR / Fold change vs veh, DEPTOR / RFU, CPM / Fold change vs veh, CPM / RFU, DNAJB6 / Fold change vs veh, DNAJB6 / RFU, CACNA2D3 / Fold change vs veh, CACNA2D3 / RFU, DTX4 / Fold change vs veh, DTX4 / RFU, TFCP2 / Fold change vs veh, TFCP2 / RFU, GMCL1 /// GMCL1P1 / Fold change vs veh, GMCL1 /// GMCL1P1 / RFU, AEBP2 / Fold change vs veh, AEBP2 / RFU, SNHG1 /// SNORD22 /// SNORD25 /// SNORD26 /// SNORD27 /// SNORD28 /// SNORD29 /// SNORD31 / Fold change vs veh, SNHG1 /// SNORD22 /// SNORD25 /// SNORD26 /// SNORD27 /// SNORD28 /// SNORD29 /// SNORD31 / Fold change (Aza/veh), C12orf56 (ProbeSet 11735607_a_at) / Fold change (ACY-1035/veh), C12orf56 (ProbeSet 11735607_a_at) / Fold change (Aza/veh), FGFR1OP (ProbeSet 11751329_s_at) / Fold change (ACY-1035/veh), FGFR1OP (ProbeSet 11751329_s_at) / Fold change (Aza/veh), VPS36 (ProbeSet 11739960_a_at) / Fold change (ACY-1035/veh), VPS36 (ProbeSet 11739960_a_at) / RFU SYPL1 (11715823_x_at) / Fold change /veh SYPL1 (11715823_x_at) / RFU IGFBP7 (11715501_s_at) / Fold change /veh IGFBP7 (11715501_s_at) / RFU REEP3 (11722064_at) / Fold change /veh REEP3 (11722064_at) / RFU IGLL1 (11728026_x_at) / Fold change /veh IGLL1 (11728026_x_at): dose or concentration left out as unconfirmed
Conditions: MV-4-11 cells, 48 hours

Structure (SMILES): Nc1ncn([C@@H]2O[C@H](CO)[C@@H](O)[C@H]2O)c(=O)n1 [azacitidine]
- Fold change /veh FAM212B (11763350_a_at): 1.13
